Laboratory results reported in patent US5232917A, “Methods, compositions, and compounds for allosteric modulation of the GABA receptor by members of the androstane and pregnane series” (priority 1991, dated 1993).
Where two headings read alike, the source gives them in different places.

Tests used:
[1] = test system: metrazol-induced seizures; assay: Time course of antimetrazol activity of prodrugs; format: in vivo, mice (CF1); details: 60 mg/kg ip; for responders at 60 mg/kg: Mus musculus
[2] = biological target: GABA receptor-chloride ionophore complex (GR complex); assay: [35S]TBPS binding modulation assay; details: for Max. Inhib., maximal % of specifically bound [35S]-TBPS displaced: saturating concentrations of test compound
progesterone receptor = biological target: T1, progesterone receptor (Bos taurus, UniProt F1N712); assay: Inhibition of 3H-progesterone binding to bovine uteral progesterone receptors
T1 construct: from tissue; host or cells: bovine uterus cytosol
T1 sequence (F1N712 1-914): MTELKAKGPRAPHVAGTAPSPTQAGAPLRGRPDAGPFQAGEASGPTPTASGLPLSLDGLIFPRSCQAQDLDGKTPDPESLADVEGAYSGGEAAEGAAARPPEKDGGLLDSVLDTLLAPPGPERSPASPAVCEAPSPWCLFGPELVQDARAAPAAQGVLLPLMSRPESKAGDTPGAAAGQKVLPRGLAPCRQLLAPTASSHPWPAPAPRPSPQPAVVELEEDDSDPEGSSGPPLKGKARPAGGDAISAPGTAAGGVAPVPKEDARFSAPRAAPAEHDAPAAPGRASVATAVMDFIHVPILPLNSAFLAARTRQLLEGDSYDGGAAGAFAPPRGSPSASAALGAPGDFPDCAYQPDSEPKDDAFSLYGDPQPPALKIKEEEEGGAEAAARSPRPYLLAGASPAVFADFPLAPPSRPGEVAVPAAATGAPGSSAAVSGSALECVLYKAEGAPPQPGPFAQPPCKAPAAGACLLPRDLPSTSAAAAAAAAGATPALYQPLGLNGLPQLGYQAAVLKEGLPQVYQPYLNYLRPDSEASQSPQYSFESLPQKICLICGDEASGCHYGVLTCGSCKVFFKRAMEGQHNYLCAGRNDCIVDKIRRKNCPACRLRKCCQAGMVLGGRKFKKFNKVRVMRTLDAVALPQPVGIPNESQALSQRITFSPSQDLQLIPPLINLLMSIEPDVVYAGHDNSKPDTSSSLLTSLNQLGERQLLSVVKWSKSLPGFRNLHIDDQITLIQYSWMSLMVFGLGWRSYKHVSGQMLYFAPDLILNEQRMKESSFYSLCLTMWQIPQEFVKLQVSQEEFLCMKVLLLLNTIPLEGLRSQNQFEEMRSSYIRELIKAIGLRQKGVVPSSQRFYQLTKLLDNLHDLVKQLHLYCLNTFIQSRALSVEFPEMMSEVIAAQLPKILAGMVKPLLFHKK
Description: The hormonal activity of drugs described herein was further studied through testing their potential estrogenic, progestinic, mineralocorticoid and glucocorticoid activities. These activities were analyzed by monitoring the ability of the drugs to inhibit binding of the steroid hormones to their respective hormone receptors.
For the data presented in Table 9, bovine uteri cytosol was isolated as they were for Table 7 and used for following binding to progesterone receptors by following the inhibition of ^3 H-progesterone, the natural ligand.

[3] = 1 hr, read-out: Antimetrazol activity, % of animals protected, 1 hr
[4] = read-out: IC50, inhibition of [35S]-TBPS binding, +5 μM GABA, in the presence of 5 μM GABA
[5] = washed synaptoneurosomes, no GABA added
[6] = 4 hr, read-out: Antimetrazol activity, % of animals protected, 4 hr
[7] = read-out: IC50, inhibition of [35S]-TBPS binding, No GABA, washed synaptoneurosomes, no GABA added
[8] = read-out: % of inhibition of 3H-progesterone binding, A, competitor 10^-5 M, 0.15 nM 3H-progesterone
[9] = read-out: % of inhibition of 3H-progesterone binding, A, competitor 10^-6 M, 0.15 nM 3H-progesterone
[10] = read-out: % of inhibition of 3H-progesterone binding, B, competitor 10^-5 M, 0.25 nM 3H-progesterone
[11] = read-out: % of inhibition of 3H-progesterone binding, B, competitor 10^-6 M, 0.25 nM 3H-progesterone

CC(=O)O[C@@H]1CC[C@@]2(C)[C@@H](CC[C@@H]3[C@@H]2CC[C@]2(C)[C@@H](C(C)=O)CC[C@@H]32)C1 [CH3]
responders at 60 mg/kg [1, 3]: 25%

CC(=O)[C@H]1CC[C@H]2[C@@H]3CC=C4C[C@@H](O)CC[C@]4(C)[C@H]3CC[C@]12C [5-PREGNEN-3β-OL-20-ONE (PREGNENOLONE), 5-PREGNEN-3β-OL-20-ONE, reference compound]
IC50 [2, 4]: > 100 µM
Max. Inhib., maximal % of specifically bound [35S]-TBPS displaced [2]: 30%
IC50, inhibition of [35S]-TBPS binding, No GABA [2, 5]: Inactive

C[C@@H](O)[C@H]1CC[C@H]2[C@@H]3CC[C@H]4C[C@H](O)CC[C@]4(C)[C@H]3CC[C@]12C [5α-PREGNAN-3α,20β-DIOL]
IC50 [2, 4]: 1 µM
Max. Inhib., maximal % of specifically bound [35S]-TBPS displaced [2]: 100%

CCCCC(=O)O[C@@H]1CC[C@@]2(C)[C@@H](CC[C@@H]3[C@@H]2CC[C@]2(C)[C@@H](C(C)=O)CC[C@@H]32)C1
Antimetrazol activity, % of animals protected, 20 hr [1]: 33%
responders at 60 mg/kg [1, 3]: 33%
responders at 60 mg/kg [1, 6]: 33%

C/C=C1/CC[C@H]2[C@@H]3CC[C@H]4C[C@H](O)CC[C@]4(C)[C@H]3CC[C@]12C [3α-HYDROXY-5α-CIS-PREGN-17(20)-ENE, 3α-hydroxy-(5α)-cis-pregn-17(20)-ene]
IC50 [2, 4]: 0.068 µM
Max. Inhib., maximal % of specifically bound [35S]-TBPS displaced [2]: 100%

CC(=O)C1=CC[C@H]2[C@@H]3CC[C@@H]4C[C@H](O)CC[C@]4(C)[C@H]3CC[C@]12C [3α-HYDROXY-5β-PREGN-16-EN-20-ONE]
IC50 [2, 4]: 1 µM
Max. Inhib., maximal % of specifically bound [35S]-TBPS displaced [2]: 100%

CC(=O)[C@H]1CC[C@H]2[C@@H]3CC[C@H]4C[C@H](OC(=O)c5ccc(Cl)cc5)CC[C@]4(C)[C@H]3CC[C@]12C
responders at 60 mg/kg [1, 3]: 50%
responders at 60 mg/kg [1, 6]: < 16%

C[C@]12C[C@H](O)[C@H]3[C@@H](CCC4=CC(=O)CC[C@@]43C)[C@@H]1CC[C@@H]2C(=O)CO [4-PREGNEN-11b,21-DIOL- 3,20-DIONE, reference compound]
IC50 [2, 4]: > 100 µM
Max. Inhib., maximal % of specifically bound [35S]-TBPS displaced [2]: 21%
IC50, inhibition of [35S]-TBPS binding, No GABA [2, 5]: Inactive

CC(=O)[C@H]1CC[C@H]2[C@@H]3CC[C@H]4C[C@H](OC(=O)C(C)C)CC[C@]4(C)[C@H]3CC[C@]12C
responders at 60 mg/kg [1, 3]: 75%
responders at 60 mg/kg [1, 6]: 29%

CC(=O)[C@H]1CC[C@H]2[C@@H]3CC[C@H]4C[C@H](OC(=O)C5=CN(C)C=CC5)CC[C@]4(C)[C@H]3CC[C@]12C
Antimetrazol activity, % of animals protected, 20 hr [1]: 63%
responders at 60 mg/kg [1, 3]: 0%
responders at 60 mg/kg [1, 6]: 0%

CC(=O)[C@H]1CC[C@H]2[C@@H]3CC[C@H]4C[C@H](O)CC[C@]4(C)[C@H]3C(=O)C[C@]12C [alphaxalone, 5α-PREGNAN-3α-OL-11,20-DIONE, reference compound]
IC50 [2, 4]: 0.264 µM
IC50 [2, 7]: 11 µM

CC(=O)[C@H]1CC[C@H]2[C@@H]3CC[C@H]4C[C@@](C)(O)CC[C@]4(C)[C@H]3CC[C@]12C [3β-HYDROXY-3α-METHYL-5α-PREGNAN-20-ONE, 3β-HYDROXY-3α-METHYL-5α- PREGNAN-20-ONE]
IC50 [2, 4]: 7.4 µM
Max. Inhib., maximal % of specifically bound [35S]-TBPS displaced [2]: 55%

CC(C)(O)[C@H]1CC[C@H]2[C@@H]3CC[C@H]4C[C@](C)(O)CC[C@]4(C)[C@H]3CC[C@]12C [3α,20-dihydroxy-3β,20-dimethyl-5α-pregnane]
inhibition at 10 µM (progesterone receptor; [8]): 5%
inhibition at 1 µM (progesterone receptor; [9]): 8%
inhibition at 10 µM (progesterone receptor; [10]): 0%
inhibition at 1 µM (progesterone receptor; [11]): 0%
Max. Inhib., maximal % of specifically bound [35S]-TBPS displaced [2]: 50%

CCCC(=O)O[C@@H]1CC[C@@]2(C)[C@@H](CC[C@@H]3[C@@H]2CC[C@]2(C)[C@@H](C(C)=O)CC[C@@H]32)C1
responders at 60 mg/kg [1, 3]: 75%
responders at 60 mg/kg [1, 6]: 13%

CC(=O)[C@H]1CC[C@H]2[C@@H]3CC[C@H]4C[C@H](OC(=O)C5CCC5)CC[C@]4(C)[C@H]3CC[C@]12C
Antimetrazol activity, % of animals protected, 20 hr [1]: 17%
responders at 60 mg/kg [1, 3]: 17%

C[C@]12CC[C@@H](O)C[C@@H]1CC[C@@H]1[C@@H]2CC[C@]2(C)[C@@H](O)CC[C@@H]12 [5α-ANDROSTAN-3α,17β-DIOL, 5α-ANDROSTAN-3α ,17β-DIOL]
IC50 [2, 4]: 1 µM
IC50 [2, 7]: 15 µM
Max. Inhib., maximal % of specifically bound [35S]-TBPS displaced [2]: 100%

CO[C@@H]1C[C@H]2[C@@H]3CC[C@H]4C[C@H](O)CC[C@]4(C)[C@H]3CC[C@]2(C)[C@H]1C(C)=O [3α-HYDROXY-5α-PREGNAN-16α-METHOXY-20-ONE]
IC50 [2, 4]: 4.5 µM
Max. Inhib., maximal % of specifically bound [35S]-TBPS displaced [2]: 73%

C[C@H](O)[C@H]1CC[C@H]2[C@@H]3CC[C@@H]4C[C@H](O)CC[C@]4(C)[C@H]3CC[C@]12C [5β-pregnan-3α,20α-diol]
inhibition at 10 µM (progesterone receptor; [8]): 1%
inhibition at 10 µM (progesterone receptor; [10]): 1%

CC(=O)OCC(=O)[C@H]1CC[C@H]2[C@@H]3CC[C@H]4C[C@H](OC(C)=O)CC[C@]4(C)[C@H]3CC[C@]12C
responders at 60 mg/kg [1, 3]: 0%
responders at 60 mg/kg [1, 6]: 0%

COc1ccc(C(=O)O[C@@H]2CC[C@@]3(C)[C@@H](CC[C@@H]4[C@@H]3CC[C@]3(C)[C@@H](C(C)=O)CC[C@@H]43)C2)cc1
responders at 60 mg/kg [1, 3]: 17%
responders at 60 mg/kg [1, 6]: 17%

CCC(=O)O[C@@H]1CC[C@@]2(C)[C@@H](CC[C@@H]3[C@@H]2CC[C@]2(C)[C@@H](C(C)=O)CC[C@@H]32)C1
responders at 60 mg/kg [1, 3]: 75%
responders at 60 mg/kg [1, 6]: 0%

C[C@]12CCC(=O)C[C@@H]1CC[C@@H]1[C@@H]2CC[C@]2(C)[C@@H](O)CC[C@@H]12 [5α-ANDROSTAN-17β-OL-3-ONE, 5α-ANDROSTAN-17β-OL-3- ONE, reference compound]
IC50 [2, 4]: 18 µM
IC50 [2, 7]: > 100 µM
Max. Inhib., maximal % of specifically bound [35S]-TBPS displaced [2]: 52%

CC(=O)[C@H]1CC[C@H]2[C@@H]3CC[C@@H]4C[C@H](O)CC[C@]4(C)[C@H]3CC[C@]12C [5β-pregnan-3α,ol-20-one]
inhibition at 10 µM (progesterone receptor; [8]): 17%
inhibition at 1 µM (progesterone receptor; [9]): 9%
inhibition at 10 µM (progesterone receptor; [10]): 13%
inhibition at 1 µM (progesterone receptor; [11]): 1%

CC(=O)C1=CC[C@H]2[C@@H]3CC[C@H]4C[C@H](O)CC[C@]4(C)[C@H]3CC[C@]12C [3α-HYDROXY-5α-PREGN-16-EN-20-ONE]
IC50 [2, 4]: 0.161 µM
Max. Inhib., maximal % of specifically bound [35S]-TBPS displaced [2]: 100%

C[C@]12CC[C@@H]3c4ccc(O)cc4CC[C@H]3[C@@H]1CC[C@@H]2O [17β-ESTRADIOL, reference compound]
IC50, inhibition of [35S]-TBPS binding, +5 μM GABA ([2]; in the presence of 5 μM GABA): Inactive
Max. Inhib., maximal % of specifically bound [35S]-TBPS displaced [2]: 0%
IC50, inhibition of [35S]-TBPS binding, No GABA [2, 5]: Inactive

C[C@]12CC[C@@H](O)C[C@@H]1CC[C@@H]1[C@@H]2CC[C@]2(C)[C@@H](C(=O)O)CC[C@@H]12 [3α-HYDROXY-5α-ANDROSTAN-17β-CARBOXYLATE, 3α-Hydroxy-5α-androstane-17β-carboxylic acid]
IC50 [2, 4]: 2.68 µM
Max. Inhib., maximal % of specifically bound [35S]-TBPS displaced [2]: 63%

CC(C)CCC[C@@H](C)[C@H]1CC[C@H]2[C@@H]3CC=C4C[C@@H](O)CC[C@]4(C)[C@H]3CC[C@]12C [CHOLESTEROL, reference compound]
IC50, inhibition of [35S]-TBPS binding, +5 μM GABA ([2]; in the presence of 5 μM GABA): Inactive
potency/activity at the GR complex ([2]; modulation of [35S]TBPS binding): essentially inactive
Max. Inhib., maximal % of specifically bound [35S]-TBPS displaced [2]: 0%
IC50, inhibition of [35S]-TBPS binding, No GABA [2, 5]: Inactive

C[C@]12CC[C@@H](O)C[C@@H]1CC[C@@H]1[C@@H]2CC[C@]2(C)[C@@H](C(=O)CCl)CC[C@@H]12 [21-CHLORO-5α-PREGNAN-3α-OL-20-ONE]
IC50 [2, 4]: 0.08 µM
Max. Inhib., maximal % of specifically bound [35S]-TBPS displaced [2]: 100%

C[C@]12CC[C@@H](O)C[C@@H]1CC[C@H]1[C@@H]3CC[C@H](C(=O)CO)[C@@]3(C)CC(=O)[C@@H]12 [5α-PREGNAN-3α,21-DIOL-11,20-DIONE, 5α-PREGNAN-3α,21-DIOL- 11,20-DIONE]
IC50 [2, 4]: 5.5 µM
IC50 [2, 7]: > 100 µM

CC(=O)[C@H]1CC[C@H]2[C@@H]3CC[C@H]4C[C@@H]5O[C@@H]5C[C@]4(C)[C@H]3CC[C@]12C [2,3-EPOXY-5α-PREGNAN-20-ONE, 2α,3α-Epoxy-5α-pregnan-20-one, reference compound]
IC50 [2, 4]: 100 µM
